Assay results as given in patent publication US11950594B2, “Methods and compositions for inhibiting formation of biofilms” (INSTITUTE OF MICROBIOLOGY, CHINESE ACADEMY OF SCIENCES, priority 2019, dated 2024).

Tests used:
pKa by HCl/KOH titration = type: physicochemical; conditions: titration with HCl (25 mM) and KOH (25 mM)
Method: (§1) UV-Vis spectral analysis was used to study the stability of the coumarin-chalcone compound C9 at a pH range of 3.4 to 8.4. […] After reaching pH=2, KOH (25 mM) was added slowly until the pH reached 12. In this way, a graph of a relationship between the pH and the volume of KOH added was plotted to find an equivalent point and thus the pKa.

[1] = tested on: Staphylococcus aureus biofilm; experiment: 96-well plate crystal violet biofilm detection; type: cell-based; conditions: FIG. 11
Method: 1% inoculation amount of the bacterial solution cultured overnight was inoculated into 100 μL Jensen liquid medium. Different equal amounts of bacteria solution with C1 to C12, respectively, or without any additional substance were cultured in a 96-well polyvinyl chloride (PVC) plate (costar) overnight at 30° C. without agitation.
The bacterial biomass adsorbed on the 96-well PVC plate was detected by a crystal violet method, and steps were described as below. (1) The non-attached bacteria were removed using a pipettor, then the wells were gently rinsed with normal saline for 3 times. (2) A volume of 120 μL 0.1% crystal violet solution was added to stain the firmly attached bacterial cells in each well, which then staying static at room temperature for 30 min. (3) The PVC plate was taken out, the crystal violet solution was removed with a pipettor, and the non-attached crystal violet solution was washed with normal saline. (4) The crystal violet attached onto the PVC plate was dissolved with 200 μL of 30% acetic acid solution. The OD value of the acetic acid solution in each well was measured at 560 nm with a spectrophotometer.
FIG. 11 is a schematic diagram illustrating an inhibiting effect of a coumarin-chalcone compound C9 on Staphylococcus aureus and Escherichia coli biofilms. […]

PAO1 strains = experiment: Bacterial motility assay, swimming plate; type: cell-based, Pseudomonas aeruginosa; conditions: 37° C., 24 hours
Method: PAO1 strains were inoculated into a LBNS agar plate and were cultured overnight at 37° C. Single colonies were respectively inoculated on the surface of swimming plates with and without the coumarin-chalcone compound C9, and cultured at 37° C. for 24 hours. Then, a diameter of a translucent area formed by bacterial swimming on each swimming plate was measured.

[2] = Stability at different pH, UV-Vis spectral analysis; type: physicochemical; conditions: UV absorption, pH range of 3.4 to 8.4
Method: as §1
In the embodiment, the stability of the coumarin-chalcone compound C9 was studied. FIGS. 10A to 10C are schematic diagrams illustrating the stability of a coumarin-chalcone compound C9. […] The UV absorption spectroscopy in the pH range of 3.4 to 8.4 further supported the stability of the coumarin-chalcone compound C9. First, HCl (25 mM) was continually added to the coumarin-chalcone compound C9 (initial pH=6.9) until the pH reached 3.4 (FIG. 10B), resulting in an increase in the strength of an absorption band at 330 nm. […] The stability of the coumarin-chalcone compound C9 indicated a great potential to be an anti-QS and anti-biofilm drug.

## COc1cccc(/C=C/C(=O)c2cc3ccccc3oc2=O)c1 [Compound C9]
pKa by HCl/KOH titration
  pKa: 5.66
[1]
  reduction of Staphylococcus aureus biofilm: 30%
PAO1 strains
  flagellate-mediated swimming ability: no effect
[2]
  stability at different pH conditions: stable at different pH conditions
